Patent publication US9682962B2, “Pyrazolyl pyrimidinamine compound and application thereof” (SHENYANG SINOCHEM AGROCHEMICALS R&D CO., LTD., priority 2013, dated 2017)

Legend:
cucumber downy mildew = assay: Protectant activity in vivo (whole plant), cucumber downy mildew; conditions: protectant activity
Experimental: (§1) The method is as followed: The whole plant is used in this test. The compound is dissolved in a proper solvent to get mother solution. The proper solvent is selected from acetone, methanol, DMF and so on according to their dissolving capability to the sample. […] The testing solution is sprayed to the host plant by a special plant sprayer. The plant is inoculated with fungus after 24 hours. According to the infecting characteristic of fungus, the plant is stored in a humidity chamber and then transferred into greenhouse after infection is finished. And the other plants are placed in greenhouse directly.

wheat powdery mildew = assay: Protectant activity in vivo (whole plant), wheat powdery mildew; conditions: for control effect against wheat powdery mildew (%): protectant activity
Experimental: as §1

[1] = test system: Green peach aphids (Myzus Persicae Sulzer); assay: Bioactivity test against green peach aphid (airbrush foliar spray); type: in vivo
Experimental: Compounds were dissolved in mixed solvent (acetone:methanol=1:1), and diluted to required concentration with water containing 0.1% of tween 80.
Diamond back moth, armyworm, peach aphid and carmine spider mite were used as targets and the method of spraying by airbrush was used for determination of insecticidal bioassays.
Method: Filter papers were put in culture dishes (Diameter=6 cm), and water was dripped on filter papers for preserving moisture. Green peach aphids (Myzus Persicae Sulzer) were maintained on cabbage. Leaves (Diameter=3 cm) of approximately 15-30 aphids were put in the culture dishes. Bioactivity tests were used the method of Airbrush Foliar Spray, pressure=10 psi (0.7 kg/cm2), spray volume=0.5 mL. The studies were conducted at […] 25±1 C in incubator cabinets with 60±5% RH. Survey the survival aphids after 48 h and calculate the death rates.

cucumber anthracnose = assay: Protectant activity in vivo (whole plant), cucumber anthracnose; conditions: for control effect against cucumber anthracnose (%): protectant activity
Experimental: as §1

| SMILES | control effect against cucumber downy mildew(%) (cucumber downy mildew; 25 mg/L) | control effect against cucumber downy mildew(%) (cucumber downy mildew; 50 mg/L) | control effect against cucumber downy mildew(%) (cucumber downy mildew; 100 mg/L) | control effect against cucumber downy mildew(%) (cucumber downy mildew; 400 mg/L) | control effect against wheat powdery mildew (%) (wheat powdery mildew; 6.25 mg/L) | control effect against wheat powdery mildew (%) (wheat powdery mildew; 25 mg/L) | control effect against wheat powdery mildew (%) (wheat powdery mildew; 100 mg/L) | control effect against wheat powdery mildew (%) (wheat powdery mildew; 400 mg/L) | Insecticidal activity against peach aphid (%) ([1]; 10 mg/L) | Insecticidal activity against peach aphid (%) ([1]; 100 mg/L) | Insecticidal activity against peach aphid (%) ([1]; 600 mg/L) | also measured |
| --- | --- | --- | --- | --- | --- | --- | --- | --- | --- | --- | --- | --- |
| Cc1ccc(-n2cc(CCNc3ncnc(C(F)F)c3Cl)cn2)cc1 [Compound 853] | 80 | 100 | 100 | 100 | – | – | – | – | – | – | – | – |
| Cc1ncnc(NCCc2cnn(-c3ccc(Cl)cc3Cl)c2)c1Cl [Compound 261] | 100 | 100 | 100 | 100 | 50 | 60 | 80 | 100 | – | – | – | control effect against cucumber downy mildew(%) (cucumber downy mildew; 12.5 mg/L): 100% |
| CCc1ncnc(NCCc2cnn(-c3ccc(F)cc3)c2)c1Cl [Compound 522] | – | – | – | – | – | – | – | – | 33 | 96 | 100 | – |
| FC(F)c1ncnc(NCCc2cnn(-c3ccc(OC(F)(F)F)cc3)c2)c1Cl [Compound 874] | – | – | – | – | 100 | 100 | 100 | 100 | – | – | – | control effect against cucumber anthracnose (%) (cucumber anthracnose; 0.78 mg/L): 0%; control effect against cucumber anthracnose (%) (cucumber anthracnose; 1.56 mg/L): 20%; control effect against cucumber anthracnose (%) (cucumber anthracnose; 3.13 mg/L): 60%; control effect against cucumber anthracnose (%) (cucumber anthracnose; 6.25 mg/L): 98%; control effect against cucumber anthracnose (%) (cucumber anthracnose; 25 mg/L): 100%; control effect against cucumber anthracnose (%) (cucumber anthracnose; 100 mg/L): 100%; control effect against cucumber anthracnose (%) (cucumber anthracnose; 400 mg/L): 100% |
| COc1ccc(-n2cc(CCNc3ncnc(C(F)F)c3Cl)cn2)cc1 [Compound 868] | 100 | 100 | 100 | 100 | 100 | 100 | 100 | 100 | – | – | – | protectant activity against wheat powdery mildew in vivo (wheat powdery mildew; 1.6 ppm): 80%; control effect against cucumber downy mildew(%) (cucumber downy mildew; 12.5 mg/L): 85% |
| Cc1ncnc(NCCc2cnn(C(C)(C)C)c2)c1Cl [Compound 8] | – | – | – | – | – | – | 100 | 100 | – | – | – | control effect against cucumber anthracnose (%) (cucumber anthracnose; 6.25 mg/L): 60%; control effect against cucumber anthracnose (%) (cucumber anthracnose; 25 mg/L): 80%; control effect against cucumber anthracnose (%) (cucumber anthracnose; 100 mg/L): 90%; control effect against cucumber anthracnose (%) (cucumber anthracnose; 400 mg/L): 100% |
| CCc1ncnc(NCCc2cnn(-c3ccc(OC(F)(F)F)cc3)c2)c1Cl [Compound 596] | – | – | – | – | 95 | 100 | 100 | 100 | – | – | – | control effect against cucumber anthracnose (%) (cucumber anthracnose; 6.25 mg/L): 75%; control effect against cucumber anthracnose (%) (cucumber anthracnose; 25 mg/L): 98%; control effect against cucumber anthracnose (%) (cucumber anthracnose; 100 mg/L): 100%; control effect against cucumber anthracnose (%) (cucumber anthracnose; 400 mg/L): 100% |
| CCc1ncnc(NCCc2cnn(-c3ccc(C(F)(F)F)cc3)c2)c1Cl [Compound 587] | – | – | – | – | – | – | – | – | – | 93 | 100 | – |
| CCc1ncnc(NCCc2cnn(-c3ccc(Cl)cc3Cl)c2)c1Cl [Compound 539] | 100 | 100 | 100 | 100 | – | – | – | – | – | – | – | – |
| COc1ccc(-n2cc(CCNc3ncnc(C)c3Cl)cn2)cc1 [Compound 312] | 100 | 100 | 100 | 100 | 95 | 100 | 100 | 100 | – | – | – | – |
| CC(C)(C)n1cc(CCNc2ncnc(C(F)F)c2Cl)cn1 [Compound 38] | – | – | – | – | 40 | 100 | 100 | 100 | – | 100 | 100 | control effect against cucumber anthracnose (%) (cucumber anthracnose; 6.25 mg/L): 85%; control effect against cucumber anthracnose (%) (cucumber anthracnose; 25 mg/L): 90%; control effect against cucumber anthracnose (%) (cucumber anthracnose; 100 mg/L): 95%; control effect against cucumber anthracnose (%) (cucumber anthracnose; 400 mg/L): 100% |
| Cc1ncnc(NCCc2cnn(-c3c(Cl)cc(C(F)(F)F)cc3Cl)c2)c1Cl [Compound 406] | – | – | – | – | 90 | 98 | 100 | 100 | 28 | 95 | 100 | – |
| CCc1ncnc(NCCc2cnn(-c3ccc(C)cc3)c2)c1Cl [Compound 575] | – | – | – | – | – | – | – | – | 73 | 88 | 92 | – |
| Cc1ncnc(NCCc2cnn(-c3ccc(C(F)(F)F)cc3)c2)c1Cl [Compound 309] | – | – | – | – | 80 | 85 | 90 | 100 | – | – | – | – |
| CCc1ncnc(NCCc2cnn(-c3ccc(OC)cc3)c2)c1Cl [Compound 590] | 100 | 100 | 100 | 100 | – | – | – | – | – | – | – | – |
| FC(F)c1ncnc(NCCc2cnn(-c3ccc(Cl)cc3)c2)c1Cl [Compound 815] | – | – | – | – | 80 | 100 | 100 | 100 | 41 | 94 | 100 | – |
| Cc1ncnc(NCCc2cnn(-c3ccc(F)cc3)c2)c1Cl [Compound 244] | – | – | – | – | 50 | 80 | 100 | 100 | 65 | 71 | 91 | – |
| FC(F)c1ncnc(NCCc2cnn(Cc3ccc(Cl)cc3)c2)c1Cl [Compound 5935] | 95 | 100 | 100 | 100 | – | – | – | – | 61 | 56 | 100 | control effect against cucumber downy mildew(%) (cucumber downy mildew; 12.5 mg/L): 50% |
| CCc1ncnc(NCCc2cnn(-c3ncccc3Cl)c2)c1Cl [Compound 4733] | – | – | – | – | – | – | – | – | 88 | 100 | 100 | control against Green Peach Aphid (death rate) ([1]; 10 ppm, after 48 h): more than 80% |
| Cc1ncnc(NCCc2cnn(-c3ccc(OC(F)(F)F)cc3)c2)c1Cl [Compound 318] | 90 | 98 | 100 | 100 | 90 | 100 | 100 | 100 | – | – | – | control effect against cucumber anthracnose (%) (cucumber anthracnose; 0.78 mg/L): 98%; control effect against cucumber anthracnose (%) (cucumber anthracnose; 1.56 mg/L): 98%; control effect against cucumber anthracnose (%) (cucumber anthracnose; 3.13 mg/L): 100%; control effect against cucumber anthracnose (%) (cucumber anthracnose; 6.25 mg/L): 100%; control effect against cucumber anthracnose (%) (cucumber anthracnose; 25 mg/L): 100%; control effect against cucumber anthracnose (%) (cucumber anthracnose; 100 mg/L): 100%; control effect against cucumber anthracnose (%) (cucumber anthracnose; 400 mg/L): 100%; protectant activity against cucumber anthracnose in vivo (cucumber anthracnose; 0.78 ppm): 98%; protectant activity against cucumber anthracnose in vivo (cucumber anthracnose; 1.56 ppm): 98%; protectant activity against cucumber anthracnose in vivo (cucumber anthracnose; 3.13 ppm): 100% |
| Fc1ccc(-n2cc(CCNc3ncnc(C(F)F)c3Cl)cn2)cc1 [Compound 800] | 98 | 100 | 100 | 100 | 95 | 100 | 100 | 100 | 71 | 100 | 100 | – |
| COc1ccc(-n2cc(CCNc3nc(C)nc(C)c3Cl)cn2)cc1 [Compound 1424] | 98 | 100 | 100 | 100 | – | – | – | – | – | – | – | – |
